Data set [1] concerns MCF10A derivatives stably expressing ERRFI1-specific shRNAs. The data set can be described thus: Migration assay of ERRFI1-depleted MCF10A derivatives. Format: cell-based, human. As to conditions: ERRFI1-depleted cells. The protocol:
FIG. 3A—Serum-starved MCF10A cells were treated with EGF or DEX. qPCR analysis was performed using RNA and primers corresponding to pre-mRNAs (dashed lines) or the mature forms (solid lines). FIG. 3B—A scheme depicting negative feedback regulators of EGFR signalling. FIGS. 3C-D—Cells were stimulated as in A and extracts were immunoblotted for ERRFI1, GR and ERK2. Normalized ERRFI1 signals are shown. FIGS. 3E-F—Active ERK signals (pERK) were determined, normalized and presented. FIG. 3G—MCF10A derivatives stably expressing ERRFI1-specific shRNAs were tested for migration following the indicated treatments. The results were analysed as in FIG. 1D. *p<0.05; ***p<0.0001 (one-way Anova). FIG. 3H—Serum-starved MCF10A cells were pre-incubated for 20 minutes with actinomycin D (1 μg/m1), and thereafter stimulated for the indicated time intervals with EGF or DEX. […] FIG. 3I—The pERK signals from FIG. 3H and additional experiments were quantified, normalized to total ERK2 levels and presented.
Cells (5×10^4 cell/insert) were plated in the upper compartment of a 24-well transwell tray (Corning, Acton, MA), and their migration was assayed^16. […] For collective migration, 8×10^4 cells were seeded in plastic insets (Ibidi), and after overnight incubation, the plastic barriers were removed and time-lapse images were recorded.

Data set [2] concerns MCF10A cells. The data set is described as follows: Annexin V / propidium iodide flow cytometry. As to conditions: MCF10A pre-treated 24 hours with EGF, DEX or the combination. Format: cell-based, human. (In flow cytometry, cells or beads pass a laser one at a time.)
Experimental: FIG. 1J—MCF10A cells pre-treated for 24 hours with of EGF, DEX or the combination. Thereafter, cells were stained for the apoptosis marker annexin V and the necrosis marker propidium iodide (PI), and later assayed using flow cytometry.
Data set [3] deals with MCF10A cells. The data set can be described thus: Transwell migration assay of EGF-stimulated MCF10A cells. The format is cell-based, human. As to conditions: for inhibition of EGF-induced cell migration: MCF10A in transwell, EGF 10 ng/ml, DEX 100 nM, E2 30 nM, PRG 30 nM, MPA 100 nM, 20 hours. As to the method: MCF10A cells were grown as described^16 and stimulated with EGF (10 ng/ml) or DEX (100 nM). siRNA transfections employed Oligofectamine (Invitrogen) and ON-Target SMART (Dharmacon, Lafayette, Colo.) oligonucleotides. Lapatinib (di-p-Toluenesulfonate Salt) was purchased from LC Laboratories. Anti GR antibody for immunostaining (sc-1004, SANTA CRUZ BIOTECHNOLOGY, INC.)
Cells (5×10^4 cell/insert) were plated in the upper compartment of a 24-well transwell tray (Corning, Acton, MA), and their migration was assayed^16. Cell invasion assays were performed using BioCoat Matrigel Invasion Chambers (BD Bioscience, Franklin Lakes, N.J.). For tracking, cells were seeded (3×10^3 cells/cm^2) on collagen-coated micro-slide (from Ibidi). For collective migration, 8×10^4 cells were seeded in plastic insets (Ibidi), and after overnight incubation, the plastic barriers were removed and time-lapse images were recorded.

In data set [4] the test system is EGF-induced genes. The data set can be described thus: Affymetrix Exon Array time course of EGF- and DEX-regulated transcripts. The format is cell-based, human. As to conditions: at 20 minutes. As to the method: (§1) RNA was isolated using the PerfectPure kit from 5 Prime (Hamburg, Germany). Affymetrix GeneChip Human Exon 1.0 ST arrays were used and data were deposited in Gene Expression Omnibus (GSE53405). PCR of pre-mRNA or mRNA used forward primers positioned in the second intron or exon, respectively (Table 3 below).
(§2) All reactions were performed using Power SYBR Green PCR Master Mix (Applied Biosystems, Foster City, CA). For high throughput PCR the Fluidigm® BioMark system was employed. The Affymetrix Expression Console was used for analyses of DNA-arrays, as described^51.
Conceivably, the inhibitory effect of GR involves alterations of EGF-induced transcription. Specifically, GR might affect transcript synthesis or modulate EGF-induced RNA splicing in MCF10A cells. To address such models, cells were stimulated with EGF, DEX or the combination, mRNAs were isolated along a time course from 20 minutes to four hours, and the RNA was hybridized to Affymetrix Exon Arrays which is able to resolve small changes in splicing^19. In addition, confirmatory PCR analyses are provided.

Data set [5] relates to N87 human gastric cancer cells. The data set is described as follows: N87 tumor xenograft study with day or night dosing. The format is in vivo, mice. As to the method:
All animal experiments were approved by the institutional committee. C57BL/6 (CD45.2, Harlan) and knockout animals were maintained under defined flora conditions and at 12 hour light-dark cycles. For daily clock studies, female mice (10-12 week old) were divided into 2 groups; one was maintained in the day-night room, and the second group was located in a special room (with inverted day-light cycles). Mice were let acclimate for at least one week prior to protein and RNA extraction. For tumor xenograft studies, 20 athymic nude (nu/nu) mice were used and maintained in a Specific Pathogen Free environment. Animals (n=10 per group) were inoculated subcutaneously in the left leg (using a sterile 22-gauge needle) with 5×10^6 N87 cells. Mice were randomized into two groups, daily treated with Lapatinib by oral gavage (40 mg/kg) in the night (2 hours after the light off) and in the day (approximately 70 minutes before light on). Treatments were started 2 weeks after cell injection. Tumor width (W) and length (L) were measured once a week with a calliper and tumor volume (V) was calculated according to the formula: V=0.5×W^2×L.

Data set [6] addresses T1, glucocorticoid receptor (Homo sapiens, UniProt P04150).
T1 sequence (P04150 1-777): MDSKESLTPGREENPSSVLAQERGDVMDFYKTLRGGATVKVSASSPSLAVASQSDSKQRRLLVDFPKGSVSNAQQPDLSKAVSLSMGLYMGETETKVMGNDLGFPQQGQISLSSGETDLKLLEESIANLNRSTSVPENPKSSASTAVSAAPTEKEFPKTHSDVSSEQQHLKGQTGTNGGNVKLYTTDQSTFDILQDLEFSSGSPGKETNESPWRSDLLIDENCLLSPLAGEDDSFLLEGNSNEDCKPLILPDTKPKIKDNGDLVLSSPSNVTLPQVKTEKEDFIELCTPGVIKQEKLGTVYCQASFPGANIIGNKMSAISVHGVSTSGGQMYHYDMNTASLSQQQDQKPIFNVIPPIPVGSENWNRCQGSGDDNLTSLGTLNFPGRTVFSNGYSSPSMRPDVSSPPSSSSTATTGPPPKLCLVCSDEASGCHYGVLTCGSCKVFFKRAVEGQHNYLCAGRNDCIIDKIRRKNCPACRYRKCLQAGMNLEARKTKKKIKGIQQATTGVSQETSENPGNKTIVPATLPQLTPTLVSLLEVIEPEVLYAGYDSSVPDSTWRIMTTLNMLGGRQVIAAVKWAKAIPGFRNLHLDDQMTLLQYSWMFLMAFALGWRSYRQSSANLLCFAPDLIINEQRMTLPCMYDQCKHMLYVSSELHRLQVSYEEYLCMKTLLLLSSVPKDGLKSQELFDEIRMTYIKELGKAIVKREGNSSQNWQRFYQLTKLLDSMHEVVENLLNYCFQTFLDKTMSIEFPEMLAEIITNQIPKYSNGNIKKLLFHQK
The following applies: cited from earlier work.

The test system of data set [7] is DUSP1 and ERRFI1. The data set is described as follows: qPCR of negative feedback regulators (pre-mRNA and mRNA). As to conditions: serum-starved MCF10A, EGF 10 ng/ml, DEX 100 nM. Format: cell-based, human. The protocol: as §1, §2
Analyses of defects in vulva formation in worms and aberrations in eye development in insects, two processes controlled by EGFR, helped define several evolutionary conserved and partly redundant negative feedback loops able to robustly terminate EGFR signalling^21. Since Module A (EGF^UP/DEX^UP) includes several orthologs of the invertebrate negative feedback loops, three of them were selected for further analysis. DUSP1 is the prototype of MAPK-specific phosphatases, which dephosphorylate the shared Thr-Xxx-Tyr motif of MAPKs. ERRFI1/MIG6 (also called RALT) is a previously identified steroid-inducible adaptor, which physically binds and inhibits the kinase domain of EGFR^5. […] By using primers specific for the nascent or the mature transcripts, de novo transcription of these three negative regulators was followed (FIG. 3A). […]
On the technique in general: Real-time PCR tracks product formation cycle by cycle.

Consider `C[C@@H]1C[C@H]2[C@@H]3CCC4=CC(=O)C=C[C@]4(C)[C@@]3(F)[C@@H](O)C[C@]2(C)[C@@]1(O)C(=O)CO` [DEX, dexamethasone], for which the “inhibition of EGF-induced migration” value stood at 30% in data set [1] and 90% in data set [3] (control cells). For the same compound, in data set [2], the “cellular toxicity, markers of apoptosis (annexin V) and necrosis (propidium iodide)” value is listed as “excluded the possibility of cellular toxicity”. Further, the “inhibitory effect on EGF-induced genes, share of maximal capacity” value in data set [4] was found to be 70%.
As to `CS(=O)(=O)CCNCc1ccc(-c2ccc3ncnc(Nc4ccc(OCc5cccc(F)c5)c(Cl)c4)c3c2)o1` [Lapatinib], in data set [5] (40 mg/kg/day oral gavage, just before the resting phase (ZT23) versus beginning of the active phase), the “therapeutic impact on tumor size and weight by time of administration” value is listed as “statistically significant enhancement”. For the same compound, in data set [5] (administration during the resting phase), the “tumor angiogenesis (appearance of tumors)” value is “inhibited tumor angiogenesis”.
Turning to `CC(=O)O[C@]1(C(C)=O)CC[C@H]2[C@@H]3C[C@H](C)C4=CC(=O)CC[C@]4(C)[C@H]3CC[C@@]21C` [MPA, medroxyprogesterone acetate], in data set [3], the “inhibition of EGF-induced cell migration” value is on record as “less potent”. Besides, in data set [6], the EC50 was around 0.01 µM.
`CC(=O)[C@H]1CC[C@H]2[C@@H]3CCC4=CC(=O)CC[C@]4(C)[C@H]3CC[C@]12C` [PRG, progesterone]: in data set [3], the “inhibition of EGF-induced cell migration” value is “weak or no activity”.
In the case of “EGF: epidermal growth factor, EGFR ligand used to stimulate MCF10A cells”, the “induction of DUSP1 and ERRFI1 transcripts” value in data set [7] is on record as 3-5 fold.

Usually EC50 stands for the concentration at which the effect is half-maximal.
